Earlier results on three compounds are cited in patent US7129249B2, “Heterocyclic amide derivatives as inhibitors of glycogen phoshorylase” (AstraZeneca AB, priority 2002, dated 2006).

Data set [1] deals with conscious dogs. Particulars: following a glucagon challenge.
For data set [2], the system named is hepatocytes.
Data set [3] relates to db/db and ob/ob mice. The following applies: db/db and ob/ob mice following treatment.

With `CCN1C(C)=C(C(=O)OC(C)C)C(c2ccccc2Cl)C2=C1COC2=O` (centres unmarked) [Bay R 3401], in data set [1], the arterial plasma glucose entry is “reduced significantly” and the hepatic glucose output result is on record as “reduced significantly”.
On to `O=C(N[C@@H](Cc1ccc(F)cc1)C(=O)N1CCC(O)CC1)c1cc2cc(Cl)ccc2[nH]1` [CP320626], for which, in data set [2], the glucagon stimulated glycogenolysis result is given as “reduce” and the glucose output result is on record as “reduce”. Further, in data set [3], the plasma glucose concentration result is reported as “reduced, in a dose related manner”.
In the case of `CN(C)C(=O)[C@H](O)[C@H](Cc1ccccc1)NC(=O)c1cc2cc(Cl)ccc2[nH]1` [CP91149], in data set [2], the glucagon stimulated glycogenolysis entry was “reduce” and the glucose output entry is listed as “reduce”. The plasma glucose concentration entry in data set [3] is “reduced, in a dose related manner”.
